The record followed here is paper PMC9088016, “Synthesis and biological evaluation of phosphatidylcholines with cinnamic and 3-methoxycinnamic acids with potent antiproliferative activity” (RSC Advances, 2018).

The subject of test [1] is MV4-11 cells. Briefly: Antiproliferative assay in vitro (MTT), 72 h. Format: cell-based, human. The settings on record: Homo sapiens, MV4-11; leukaemia cells, MTT, 72 h exposure, mean ± SD. The procedure:
(§1) Biophenotypic B myelomonocytic leukaemia MV4-11, human lung carcinoma A549, human breast carcinoma MCF-7, human colon carcinoma LoVo, its drug resistant line LoVo/DX, liver carcinoma HepG2, and normal mouse fibroblast BALB/3T3 cells were obtained from the American Type Culture Collection (Rockville, Maryland, USA). All lines are being maintained at the Institute of Immunology and Experimental Therapy, Wrocław, Poland. All cell lines were grown in a humid atmosphere at 37 °C with 5% CO2 and were cultured in media according to the method described before.[18]
(§2) Prior to usage, the compounds were dissolved in DMSO to the concentration of 25 or 50 mM, and subsequently diluted in the culture medium to reach the required concentrations (ranging from 5 to 625 μM).
(§3) Twenty-four hours before addition of the tested compounds, the cells were plated in 96-well plates (Sarstedt, USA) at a density of 10^4 cells per well. All cell lines were exposed to each tested phosphatidylcholines for 72 h. Cells were also exposed to the commercially available drugs cisplatin and doxorubicin. Cell lines were also exposed to the solvent used for the tested compounds (DMSO) at concentrations corresponding to those present in the tested agents' dilutions. For adherent cells, a SRB assay was performed and an MTT assay was performed for leukaemia cells.
This technique was applied for the cytotoxicity screening against leukemia cells. An assay was performed after 72 h exposure to varying concentrations (from 5 to 625 μM) of the tested agents. For the last 3–4 hours of incubation. 20 μL of MTT solution was added to each well (MTT: 3-(4,5-dimethylthiazol-2-yl)-2,5-diphenyl tetrazolium bromide; stock solution: 5 mg mL^−1, Sigma, Germany). The mitochondria of viable cells reduce the pale yellow MTT to a navy blue formazan: the more viable cells are present in a well, the more MTT will be reduced to formazan. When the incubation time was completed, 80 μL of the lysing mixture was added to each well (lysing mixture: 225 mL dimethylformamide, 67.5 g sodium dodecyl sulphate, and 275 mL of distilled water). After 24 h, when formazan crystals had been dissolved, the optical densities of the samples were read with a Multiskan RC photometer at 570 nm wavelength. Each compound in a given concentration was tested in triplicate in each experiment, which was repeated 3–5 times.
(§4) The results of the cytotoxic activity in vitro were expressed as IC50—the concentration of compound (in μM) that inhibits the proliferation rate of the tumor cells by 50% as compared to control untreated cells.

The test system of the next test is A549 cells. Briefly: Antiproliferative assay in vitro (SRB), 72 h. Format: cell-based, human. The settings on record: Homo sapiens, A549, lung cancer cells, 72 h exposure, mean ± SD, read-out: IC50 A-549. On the procedure:
as §1, §2, §3
(§5) The cytotoxicity assay was performed after 72 h exposure of the cultured cells to varying concentrations (from 5 to 625 μM) of the tested agents. The cells attached to the plastic were fixed in situ by gently adding 50 μL per well of cold 50% TCA (trichloroacetic acid). The plates were incubated at 4 °C for 1 h and then washed five times with tap water. The background optical density was measured in the wells filled with culture medium, without the cells. The cellular material fixed with TCA was stained with 50 μL of 0.4% sulforhodamine B (SRB) dissolved in 1% acetic acid for 30 min. Unbound dye was removed by rinsing (4×) with 1% acetic acid. The protein-bound dye was extracted with 10 mM unbuffered Tris base for determination of the optical density (at 540 nm) in a computer-interfaced 96-well microtiter plate reader Multiskan RC photometer (Labsystems, Helsinki, Finland). Each compound in the given concentration was tested in triplicate in each experiment, which was repeated 3–5 times.
as §4

The subject of a further test is HepG2 cells. Briefly: Antiproliferative assay in vitro (SRB), 72 h. Format: cell-based, human. Particulars: Homo sapiens, HepG2, liver cancer cells, 72 h exposure, mean ± SD. On the procedure: as §1, §2, §3, §5, §4
The subject of a further test is LoVo cells. Briefly: Antiproliferative assay in vitro (SRB), 72 h. The test is classed as cell-based, human. The settings on record: Homo sapiens, LoVo, colon cancer cells, 72 h exposure, mean ± SD. The procedure: as §1, §2, §3, §5, §4
The next test concerns LoVo/DX cells. Briefly: Antiproliferative assay in vitro (SRB), 72 h. The test is classed as cell-based, human. The settings on record: for IC50: Homo sapiens, LoVo/DX, doxorubicin-resistant colon cancer cells, SRB, 72 h exposure, mean ± SD; for Resistance index (RI): doxorubicin-resistant LoVo/DX cell line versus LoVo. On the procedure: as §1, §2, §3, §5, §4
The next test relates to MCF-7 cells. Briefly: Antiproliferative assay in vitro (SRB), 72 h. The test is classed as cell-based, human. The settings on record: Homo sapiens, MCF7, breast cancer cells, 72 h exposure, mean ± SD. The procedure: as §1, §2, §3, §5, §4
Another test concerns BALB/3T3 cells. Briefly: Antiproliferative assay in vitro (SRB), 72 h. The test is classed as cell-based, mouse. The settings on record: Mus musculus, BALB/3T3, normal mice fibroblast cells, 72 h exposure, mean ± SD. The procedure:
as §1, §2, §3, §5, §4

The subject of test [2] is MV4-11 cells. Briefly: Cell cycle analysis (propidium iodide, flow cytometry). The settings on record: 50 μM, 72 h. The test is classed as cell-based, human. The procedure: For cell cycle analysis, the cells MV4-11 were treated with the tested compound 5a dissolved in DMSO at a concentration of 50 μM. The cells were treated also only by the DMSO for comparison. After 72 h of incubation, the cells (1 × 10^6) were trypsinized and rinsed with cold PBS. Washed cell pellets were fixed for 24 h in 70% ethanol at −20 °C. After fixation, the cells were washed twice with PBS once again and resuspended in PBS. Next, RNAse (8 μg mL^−1, Fermentas, Germany) was added and the cells were incubated for 1 h at 37 °C. The cells were then stained with propidium iodide (50 μg mL^−1, Sigma Aldrich, Germany) at 4 °C for 30 min and the cellular DNA content was analyzed by flow cytometry using a BD LSRFortessa cytometer (BD Bioscience, San Jose, USA). Compounds at each concentration were tested at least three times independently. The control in the assay was the cells exposed to DMSO at a concentration of 0.05%. Data were analyzed using ModFit 3.2 software (Verity Software, USA).

Test [3] concerns MV4-11 cells. The experiment in a line: Determination of the mitochondrial membrane potential (JC-1, flow cytometry). Format: cell-based, human. Particulars: 50 μM, 72 h. On the procedure: The loss of mitochondrial membrane potential was estimated using the fluorescent probe JC-1 (Sigma Aldrich, Germany). […] The cells were exposed to the tested compound 5a at a concentration of 50 μM. The MV4-11 cells (5 × 10^5) were washed in phosphate-buffered saline (PBS) containing 2% FBS. The pelleted cells were resuspended in 100 μL of the warm cultured medium with the addition of 10 μL of JC-1 (the final concentration of JC-1 was 3 μg mL^−1) and were then incubated for 30 min at 37 °C. Next, the cells were washed with 1 mL of PBS with 2% FBS and resuspended in 300 μL of PBS with 2% FBS. The mitochondrial membrane potential was analyzed by flow cytometry using BD LSRFortessa cytometry. Compounds at each concentration were tested at least three times independently. The control in the assay was the cells exposed to DMSO at a concentrations of 0.05%. Data were analyzed using Flowing software 2.5.1.

The subject of test [4] is MV4-11 cells. The experiment in a line: Cell death determination by Annexin V and PI staining. The test is classed as cell-based, human. Particulars: 50 μM, 72 h. On the procedure:
The MV4-11 cells were exposed to the test compound 5a at a concentration of 50 μM for 72 h. After incubation, the cells (2 × 10^5) were washed twice with PBS. APC-Annexin V (BD Pharmingen) was dissolved to the concentration of 1 mg mL^−1 in a binding buffer (HEPES buffer: 10 mM HEPES/NaOH), pH 7.4, 150 mM NaCl, 5 mM KCl, 1 mM MgCl2, 1.8 mM CaCl2, (IIET, Poland) and the cells were suspended in 200 μL of this 1 mg mL^−1 solution (freshly prepared each time). After the incubation in the dark (15 min) at room temperature, the solution (1 mg mL^−1) of propidium iodide (PI) was added prior to the analysis to give a final concentration of 0.1 mg mL^−1. Data acquisition was performed by flow cytometry using a BD LSRFortessa cytometer. Compound 5a was tested at least three times independently. The control in the assay was the cells exposed to DMSO at a concentration of 0.05%. Results were analyzed using Flowing software 2.5.1. […] Double-negative cells were live cells, PI+/Annexin V+ were late apoptotic or necrotic cells, and PI-/Annexin V+ were early apoptotic.

As to `CCCCCCCCCCCCCCCC(=O)OC[C@H](COP(=O)([O-])OCC[N+](C)(C)C)OC(=O)C=Cc1ccccc1` [Compound 5a, 1-Palmitoyl-2-cinnamoyl-sn-glycero-3-phosphocholine], the concentration for half-maximal inhibition (IC50) in the test with MV4-11 cells [1] is 43.2 ± 9.9 µM; in the test with A549 cells, 56.3 ± 0.4 µM; in the test on HepG2 cells it was 228 ± 30.6 µM; in the test on LoVo cells, 52.3 ± 5 µM; in the test on LoVo/DX cells, 56.3 ± 0.8 µM; in the test on MCF-7 cells it was 64.6 ± 3.4 µM. The IC50 with BALB/3T3 cells is 114 ± 36.6 µM. The “Resistance index (RI)” value with LoVo/DX cells is listed as 1.08. The “Effect on cell cycle” value in the test on MV4-11 cells [2] was “arrested cell cycle in the G2/M phase”. Further, in the test on MV4-11 cells [3], the “Cells having a significantly lowered mitochondrial membrane potential (Ψm)” value is reported as “about 45%”. Besides, in the test on MV4-11 cells [4], the “Induction of early apoptotic, apoptotic or necrotic cell death” value is listed as “lack of induction”.

`CCCCCCCCCCCCCCCC(=O)OC[C@H](COP(=O)([O-])OCC[N+](C)(C)C)OC(=O)C=Cc1cccc(OC)c1` [Compound 5b, 1-Palmitoyl-2-3-methoxycinnamoyl-sn-glycero-3-phosphocholine]: the 50% inhibitory concentration (IC50) was determined as 83.2 ± 4 µM in the test on MV4-11 cells [1]; 193 ± 27.4 µM in the test with A549 cells; 295 ± 11.4 µM in the test on HepG2 cells; 70.4 ± 5.4 µM in the test with LoVo cells; 69.9 ± 6.3 µM with LoVo/DX cells; 224 ± 9.5 µM in the test with MCF-7 cells. Moreover, in the test on BALB/3T3 cells, the midpoint of inhibition, the IC50, lay at 257 ± 52.4 µM. In the test with LoVo/DX cells, the “Resistance index (RI)” value is recorded as 0.99.

For the compound `CCCCCCCCCCCCCCCC(=O)O[C@H](COC(=O)C=Cc1cccc(OC)c1)COP(=O)([O-])OCC[N+](C)(C)C` [Compound 10b, 1-3-Methoxycinnamoyl-2-palmitoyl-sn-glycero-3-phosphocholine], the IC50 in the test with MV4-11 cells [1] came out at 236 ± 46.3 µM; in the test with A549 cells it was 280 ± 8.8 µM; in the test with HepG2 cells it was 296 ± 13.2 µM; with LoVo cells it was 211.6 ± 1.3 µM; in the test with LoVo/DX cells, 254 ± 11.6 µM; in the test on MCF-7 cells, 214 ± 89.6 µM. The IC50 with BALB/3T3 cells is 291 ± 5.6 µM. Further, the “Resistance index (RI)” value with LoVo/DX cells is listed as 1.2.
